Measurements taken from ChEMBL document CHEMBL1131902, “Reversal of resistance in multidrug resistance protein (MRP1)-overexpressing cells by LY329146” (Bioorg Med Chem Lett, 1999).
Converted amounts (≈) assume the structure as drawn.

Columns and labels:
HeLa [1] = assay: Cytotoxicity tested against Hela T5 cells; assay type: functional, cell-based; details: Homo sapiens
HeLa [2] = assay: Cytotoxicity tested against Hela C1 cells; assay type: functional, cell-based; details: Homo sapiens
HeLa [3] = assay: Ratio of IC50 of oncolytic and its modulator against Hela T5 cells at 1 uM dose of LY-329146; assay type: functional, Homo sapiens
HeLa [4] = assay: Ratio of IC50 of oncolytic and its modulator against Hela C1 cells at 1 uM dose of LY-329146; assay type: functional, Homo sapiens
HeLa [5] = assay: Ratio of IC50 of oncolytic and its modulator against Hela C1 cells at 2.5 uM dose of LY-329146; assay type: functional, Homo sapiens
HeLa [6] = assay: Cytotoxicity tested against Hela T5 cells at 2.5 uM dose of LY-329146; assay type: functional, cell-based; details: Homo sapiens
HeLa [7] = assay: Cytotoxicity tested against Hela T5 cells at 1 uM dose of LY-329146; assay type: functional, cell-based; details: Homo sapiens
HeLa [8] = assay: Ratio of IC50 of oncolytic and its modulator against Hela T5 cells at 2.5 uM dose of LY-329146; assay type: functional, Homo sapiens
HeLa [9] = assay: Cytotoxicity tested against Hela C1 cells at 1 uM dose of LY-329146; assay type: functional, cell-based; details: Homo sapiens
HeLa [10] = assay: Cytotoxicity tested against Hela C1 cells at 2.5 uM dose of LY-329146; assay type: functional, cell-based; details: Homo sapiens
HL-60 [11] = assay: Cytotoxicity tested against drug resistant HL60/ADR cell line at 1 uM dose of LY-117018; assay type: functional, cell-based; details: Homo sapiens
HL-60 [12] = assay: Ability to enhance the cytotoxicity of doxorubicin against […] HL60/ADR cell line expressed as reversal factor (RF) at 1 uM; assay type: functional, Homo sapiens
HL-60 [13] = assay: Ability to enhance the cytotoxicity of doxorubicin against […] HL60/ADR cell line expressed as reversal factor (RF) at 5 uM; assay type: functional, Homo sapiens
HL-60 [14] = assay: Cytotoxicity tested against drug resistant HL60/ADR cell line at 5 uM dose of LY-117018; assay type: functional, cell-based; details: Homo sapiens
HL-60 [15] = assay: Ability to inhibit 50 nM Leukotriene C4 (LTC4) uptake into HL60/ADR membrane vesicles; assay type: functional, cell-based; details: Homo sapiens
HL-60 [16] = assay: Cytotoxicity against drug resistant HL60/ADR cell line; assay type: functional, cell-based; details: Homo sapiens
HL-60 [17] = assay: Cytotoxicity tested against drug sensitive HL60/S cell line; assay type: functional, cell-based; details: Homo sapiens
HL-60 [18] = assay: Cytotoxicity tested against HL60/Vinc cell line; assay type: functional, cell-based; details: Homo sapiens
HL-60 [19] = assay: Cytotoxicity against drug sensitive HL60/S cell line at 0.5 uM dose of LY-329146; assay type: functional, cell-based; details: Homo sapiens
HL-60 [20] = assay: Cytotoxicity tested against drug sensitive HL60/S cell line at 1 uM dose of LY-329146; assay type: functional, cell-based; details: Homo sapiens
HL-60 [21] = assay: Cytotoxicity tested against drug resistant HL60/ADR cell line at 5 uM dose of LY-329146; assay type: functional, cell-based; details: Homo sapiens
HL-60 [22] = assay: Cytotoxicity tested against HL60/Vinc cell line at 1 uM dose of LY-329146 at 1 uM; assay type: functional, cell-based; details: Homo sapiens
HL-60 [23] = assay: Cytotoxicity against HL60/Vinc cell line at 0.5 uM dose of LY-329146; assay type: functional, cell-based; details: Homo sapiens
HL-60 [24] = assay: Cytotoxicity tested against drug resistant HL60/ADR cell line at 0.5 uM dose of LY-329146; assay type: functional, cell-based; details: Homo sapiens
HL-60 [25] = assay: Cytotoxicity tested against HL60/Vinc cell line at 5 uM dose of LY-329146; assay type: functional, cell-based; details: Homo sapiens
HL-60 [26] = assay: Cytotoxicity tested against drug sensitive HL60/S cell line at 5 uM dose of LY-329146; assay type: functional, cell-based; details: Homo sapiens
HL-60 [27] = assay: Cytotoxicity against drug resistant HL60/ADR cell line at 1 uM dose of LY-329146; assay type: functional, cell-based; details: Homo sapiens

Work on `CC[C@]1(O)C[C@H]2CN(CCc3c([nH]c4ccccc34)[C@@](C(=O)OC)(c3cc4c(cc3OC)N(C=O)[C@H]3[C@@](O)(C(=O)OC)[C@H](OC(C)=O)[C@]5(CC)C=CCN6CC[C@]43[C@@H]65)C2)C1` [VINCRISTINE] yielded an IC50 (HeLa [1]) of 0.051 µg/mL (≈ 0.0618 µM) and an IC50 (HeLa [2]) of 0.014 µg/mL (≈ 0.017 µM).

Compound `CC[C@]1(O)CC2CN(CCc3c([nH]c4ccccc34)[C@@](C(=O)OC)(c3cc4c(cc3OC)N(C=O)C3C45CCN4CC=C[C@@](CC)(C(OC(C)=O)[C@]3(O)C(=O)OC)[C@H]45)C2)C1.CS(=O)(=O)N(c1ccc(-c2sc3cc(O)ccc3c2C(=O)c2ccc(OCCN3CCCCC3)cc2)cc1)S(C)(=O)=O` (some centres not stated) has an RF (HeLa [3]) of 1.6, an RF (HeLa [4]) of 2 and an RF (HeLa [5]) of 2.8. For the same compound, the IC50 (HeLa [6]) was 0.013 µg/mL, the IC50 (HeLa [7]) was 0.031 µg/mL and the RF (HeLa [8]) was 3.9. The IC50 (HeLa [9]) was 0.007 µg/mL and the IC50 (HeLa [10]) was 0.005 µg/mL.

`COc1cccc2c1C(=O)c1c(O)c3c(c(O)c1C2=O)C[C@@](O)(C(=O)CO)C[C@@H]3O[C@H]1C[C@H](N)[C@H](O)[C@H](C)O1.O=C(c1ccc(OCCN2CCCC2)cc1)c1c(-c2ccc(O)cc2)sc2cc(O)ccc12` gave an IC50 (HL-60 [11]) of 3.2 µg/mL, an RF (HL-60 [12]) of 1 and an RF (HL-60 [13]) of 3. For the same compound, the IC50 (HL-60 [14]) was 1 µg/mL.

`CS(=O)(=O)N(c1ccc(-c2sc3cc(O)ccc3c2C(=O)c2ccc(OCCN3CCCCC3)cc2)cc1)S(C)(=O)=O` was tested, and the IC50 (HL-60 [15]) was 0.8 µg/mL (≈ 1.27 µM).

`COc1cccc2c1C(=O)c1c(O)c3c(c(O)c1C2=O)C[C@@](O)(C(=O)CO)C[C@@H]3O[C@H]1C[C@H](N)[C@H](O)[C@H](C)O1` [DOXORUBICIN] was tested, and the IC50 (HL-60 [16]) was 2.97 µg/mL (≈ 5.46 µM), the IC50 (HL-60 [17]) was 0.028 µg/mL (≈ 0.0515 µM) and the IC50 (HL-60 [18]) was 1.88 µg/mL (≈ 3.46 µM).

Compound `COc1cccc2c1C(=O)c1c(O)c3c(c(O)c1C2=O)C[C@@](O)(C(=O)CO)C[C@@H]3O[C@H]1C[C@H](N)[C@H](O)[C@H](C)O1.CS(=O)(=O)N(c1ccc(-c2sc3cc(O)ccc3c2C(=O)c2ccc(OCCN3CCCCC3)cc2)cc1)S(C)(=O)=O` has an IC50 (HeLa [6]) of 0.241 µg/mL, an IC50 (HeLa [7]) of 1.06 µg/mL and an IC50 (HL-60 [19]) of 0.023 µg/mL. For the same compound, the IC50 (HL-60 [20]) was 0.018 µg/mL, the IC50 (HeLa [9]) was 0.315 µg/mL and the IC50 (HeLa [10]) was 0.213 µg/mL. The IC50 (HL-60 [21]) was 0.224 µg/mL, the IC50 (HL-60 [22]) was 0.444 µg/mL and the IC50 (HL-60 [23]) was 1.44 µg/mL. For the same compound, the IC50 (HL-60 [24]) was 1.71 µg/mL, the IC50 (HL-60 [25]) was 0.027 µg/mL and the IC50 (HL-60 [26]) was 0.011 µg/mL. For the same compound, the IC50 (HL-60 [27]) was 1.11 µg/mL.

Work on `CN(C)C(=O)CCSC(SCCC(=O)O)c1cccc(/C=C/c2ccc3ccc(Cl)cc3n2)c1` (configuration not stated) [MK-571] yielded an IC50 (HL-60 [15]) of 0.5 µg/mL (≈ 0.971 µM).
